ChEMBL document CHEMBL1158981, “An Unusual Sulfur-Containing Diketopiperazine from the Bermudian Sponge Tedania ignis” (J Nat Prod, 1991)

System: Artemia
Assay: Toxicity against brine shrimp
Format: organism-based
Conditions: in vivo

O=C1[C@@H]2CCCN2C(=O)[C@H]2CSCN12
Activity: Non-toxic
